Laboratory results taken from paper PMC7452424, “Discovery and characterisation of circular bacteriocin plantacyclin B21AG from Lactiplantibacillus plantarum B21” (Heliyon, 2020).

Assay type: physicochemical
Description: The L. plantarum B21 bacteriocin was purified from the CFS by a three-step protocol process consisting of concentration, n-butanol extraction and cation exchange chromatography by Fast Protein Liquid Chromatography (FPLC). All purification steps were carried out at room temperature. L. plantarum B21 was used as an inoculum 2% (v/v) into 165 mL of MRS broth and incubated at 30 °C for 24 h without shaking. The CFS was prepared as previously described. The CFS was concentrated to 70 mL through a 10 kDa polyethersulfone membrane discs (Generon, UK) using an Amicon UF cell (Model 8200, Millipore, USA). The concentrated CFS was subjected to n-butanol extraction according to Abo-Amer with a few modifications. The concentrated L. plantarum B21 CFS was extracted twice in 1:1 volume of water saturated n-butanol and centrifuged at 10,000 × g for 10 min. The n-butanol fraction containing the bacteriocin was freeze dried (FDU-8612, Operon Co. Ltd, Korea) to remove the solvent. The dried n-butanol fraction was redissolved in 20 mM sodium phosphate buffer, pH 6.0. Both the n-butanol and aqueous fractions were examined for antimicrobial activity. […] The concentration of the bacteriocin was measured after each step of protein purification using Pierce™ BCA Protein Assay Kit (Thermo Fisher Scientific, USA) according to manufacturer's instruction.

Substance: cyclo(AAAGALGGTAAIVWIARQFGVHLTTKLTQKALDLLSSGASLGTVAAVILGVTLPGWAV) [plantacyclin B21AG]
- Solubility in butanol: remarkable solubility
